No end group written: not given here.
Test system: RAG-1-/- mice
Experiment: human IgM-mediated myocardial injury in RAG-1-/- mice (1 h LAD occlusion, 24 h reperfusion)
Format: in vivo, mouse
Conditions: 400 μg hIgM i.v. with 200 μg N2 peptide or 150 μg F(ab')2, 15 min prior to occlusion; FIG. 4
Procedure: Prior to occlusion (15 min), 400 μg of pooled individual hIgM from 10 donors was injected i.v. into the mice with either saline or 200 μg of N2 peptide. Myocardial sections were stained with Evans blue and TTC. Myocardial infarct size is expressed as a percentage infarct of the area at risk (AAR) of the left ventricle. (B and C) RAG-1−/− mice were treated as in (A) and analyzed for hIgM deposition (B) or serum troponin-I levels (C). (D) RAG-1−/− mice were subjected to 1 h LAD occlusion and 24 h reperfusion. Prior to occlusion (15 min), 400 μg hIgM was injected i.v. into the mice with either saline or 150 μg of anti-N2 F(ab′)2 antibody (21G6) and myocardial sections were analyzed as in (A). (E) RAG-1−/− mice were treated as in (D) and analyzed for hIgM deposition. In all panels, statistical significance was evaluated by Student's t test.

Question: Which “human IgM-mediated injury (infarct size, hIgM deposition, serum troponin-I)” value does the source give for “Ac-LMKNMDPLNDNV (listed as Mus sp.) [N2 peptide, self-peptide, amino acids 592-603 of Mouse NMHC-IIB]” here?
Answer: The value was “block human IgM-mediated injury”.

Source: patent US9067983B2, “Anti-inflammatory antibodies and uses therefor” (DecImmune Therapeutics, Inc., priority 2009, dated 2015)
